Test results reported in patent US20220402862A1 (Intellia Therapeutics, Inc., priority 2019, published 2022).
“And” between values parts separate entries of the source, which are not always exact repeats. Equal entries are not always repeated.

Columns and labels:
[1] = Dynamic light scattering of LNPs: Z-average diameter, number average diameter, PDI; assay type: physicochemical; conditions: LNP
Procedure, shortened: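 LNP samples were diluted in PBS and measured by DLS to give intensity-based Z-average diameter, number average diameter and polydispersity index. PDI describes size spread around the mean, with zero meaning a uniform population.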

mouse TTR gene = test: In vivo editing in mouse liver, sgRNA targeting TTR (G282 or G502), % indel by NGS; design: species or system CD-1 female mice
Experimental: CD-1 female mice ranging from 6-10 weeks of age were used in each study. Animals were weighed and grouped according to body weight for preparing dosing solutions based on group average weight. LNPs were dosed via the lateral tail vein in a volume of 0.2 mL per animal (approximately 10 mL per kilogram body weight). The animals were periodically observed for adverse effects for at least 24 hours post dose. For studies measuring in vivo editing in liver, CD-1 female mice were dosed at 0.1 mg/kg unless otherwise noted. Animals were euthanized at 6 or 7 days by ex sanguination via cardiac puncture under isoflurane anesthesia. Liver tissue was collected from each animal for DNA extraction and analysis. Blood was collected into serum separator tubes or into tubes containing buffered sodium citrate for plasma as described herein. Cohorts of mice were measured for editing by Next-Generation Sequencing (NGS).
In brief, to quantitatively determine the efficiency of editing at the target location in the genome, genomic DNA was isolated and deep sequencing was utilized to identify the presence of insertions and deletions introduced by gene editing.
PCR primers were designed around the target site (e.g., within B2M), and the genomic area of interest was amplified. Additional PCR was performed according to the manufacturer's protocols (Illumina) to add the necessary chemistry for sequencing. The amplicons were sequenced on an Illumina MiSeq instrument. The reads were aligned to the mouse or rat reference genome (e.g., GRCm38) after eliminating those having low quality scores. The resulting files containing the reads were mapped to the reference genome (BAM files), where reads that overlapped the target region of interest were selected and the number of wild type reads versus the number of reads which contain an insertion, substitution, or deletion was calculated.
The editing percentage (e.g., the “indel efficiency” or “percent indels”) was defined as the total number of sequence reads with insertions or deletions over the total number of sequence reads, including wild type.
We assessed in vivo editing efficiency for materials delivered with formulations including various amine lipid compounds. Editing was measured using either G282 (SEQ ID No: 1) which targets the mouse TTR gene or G650 (SEQ ID No. 2) which targets the mouse B2M gene. Lipids described above were assessed for efficacy through in vivo editing experiments. LNPs were formulated at a 1:1 or 1:1.3 w/w ratio of sgRNA to Cas9 mRNA, and at an N/P ratio of about 6. Molar concentrations of lipids in the lipid component of the LNPs are used at mol % amine lipid/DSPC/cholesterol/PEG-2k-DMG of 50/9/38/3. The final LNPs were characterized to determine the encapsulation efficiency, polydispersity index, and average particle size according to the analytical methods provided above. Analysis of average particle size, polydispersity (PDI), total RNA content and encapsulation efficiency of RNA are shown in Table 2.
To assess whether the editing was dose responsive, experiments were performed in vivo at various LNP dose levels. Cas9 mRNA of Example 120 was formulated as LNPs with an sgRNA targeting TTR (G282, SEQ ID NO: 1; or G502, SEQ ID NO: 4).
We assessed in vivo delivery by measuring editing efficiency for materials delivered with formulations that included various amine lipid compounds. Cas9 mRNA (SEQ ID NO: 6) was formulated as LNPs with an sgRNA targetting the TTR mouse gene (SEQ ID NO: 4). LNPs were formulated at a 1:2 w/w ratio of sgRNA to Cas9 mRNA, and at an N/P ratio of about 6. Molar concentrations of lipids in the lipid component of the LNPs are used at mol % amine lipid/DSPC/cholesterol/PEG-2k-DMG of 50/9/38/3. The final LNPs compositions were characterized and analyzed as described in Example 120. Analysis of average particle size, polydispersity (PDI), total RNA content and encapsulation efficiency of RNA are shown in Table 6.

Transthyretin (TTR) = test: Serum TTR ELISA in mice after LNP dosing; assay type: in vivo, CD-1 female mice
Procedure, shortened: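 Female CD-1 mice, 6–10 weeks, given LNPs by tail-vein injection (~10 mL/kg), 0.1 mg/kg unless noted; serum taken at day 6 or 7 by cardiac puncture. Total mouse TTR by ELISA on sera diluted 10,000-fold (0.1 mg/kg) or 10,000- and 2,500-fold (0.3 mg/kg).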

[2] = pKa measurement of unformulated amine lipid (fluorescence, method of Jayaraman et al.); assay type: physicochemical; conditions: 100 μM in 0.1 M phosphate buffer, pH 2.0-12.0
Experimental: The pKa of each amine lipid was determined according to the method in Jayaraman, et al. (Angewandte Chemie, 2012) with the following adaptations. […] Lipid was diluted to 100 μM in 0.1 M phosphate buffer (Boston Bioproducts) where the pH ranged from 2.0-12.0. Fluorescence intensity was measured using excitation and emission wavelengths of 321 nm and 448 nm.

[3] = RNA encapsulation efficiency of LNPs (Ribogreen fluorescence assay); assay type: physicochemical; conditions: LNP; for Encapsulation (%): sg:mRNA 1:1, N/P about 6, amine lipid/DSPC/cholesterol/PEG-2k-DMG 50/9/38/3, Table 2, Experiments 2-20
Procedure, shortened: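 LNPs were diluted in 1× TE with 0.2% Triton X-100 (total RNA) or without it (free RNA), stained with RiboGreen for ~10 min at room temperature in the dark, and read at Ex 488/Em 525 nm against standard curves of the starting RNA. Encapsulation efficiency = (Total − Free)/Total.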

[4] = sg:mRNA 1:2, N/P about 6, 50/9/38/3, Table 6, Experiments 106-107
[5] = guide G502, i.v. 0.1 mg/kg, sgRNA:Cas9 mRNA 1:2 w/w, experiments 106, 107
[6] = mouse serum TTR relative to TSS control, guide G502, i.v. 0.1 mg/kg
[7] = mouse serum, guide G502, i.v. 0.1 mg/kg
[8] = sg:mRNA 1:2, N/P about 6, 50/9/38/3, TTR sgRNA (SEQ ID NO: 4), Table 6, Experiments 106-107
[9] = sg:mRNA 1:1, N/P 6.0, 50/9/38/3, Table 4, Experiments 101-104
[10] = sg:mRNA 1:1, N/P about 6, 50/9/38/3, Table 2, Experiments 2-20
[11] = LNP i.v. 0.1 mg/kg, guide G282, Experiments 101-103
[12] = LNP i.v. 0.3 mg/kg, guide G282, Experiments 101-103
[13] = mouse, LNP i.v. 0.1 mg/kg, guide G282, Experiments 101-103
[14] = mouse, LNP i.v. 0.1 mg/kg, guide G282, Experiments 101-103, relative to TSS control
[15] = mouse, LNP i.v. 0.3 mg/kg, guide G282, Experiments 101-103
[16] = mouse, LNP i.v. 0.3 mg/kg, guide G282, Experiments 101-103, relative to TSS control

| Structure (SMILES) | Number mean (nm) [1, 4] | PDI [1, 4] | Z-avg (nm) [1, 4] | Editing Mean % Indel (mouse TTR gene; [5]) | Serum TTR % TSS (Transthyretin (TTR); [6]) | Serum TTR (Transthyretin (TTR); [7]) | pKa [2] | % E [3, 8] | further results |
| --- | --- | --- | --- | --- | --- | --- | --- | --- | --- |
| CCCCC/C=C\C/C=C\CCCCCCCC(=O)OCC(COC(=O)CCC(OCCCCCCCC)OCCCCCCCC)COC(=O)OCCCN1CCCCC1 (centres unmarked) [Compound 102, 3-((4,4-bis(octyloxy)butanoyl)oxy)-2-((((3-(piperidin-1-yl)propoxy)carbonyl)oxy)methyl)propyl (9Z,12Z)-octadeca-9,12-dienoate] | 57 nm | 0.02 | 71 nm | 19.6% | 62.3% | 728.1 µg/mL | 5.7 | 98% |  |
| CC/C=C\C/C=C\C/C=C\CCCCCCCC(=O)OCC(COC(=O)CCC(OCCCCCCCC)OCCCCCCCC)COC(=O)OCCCN(CC)CC (centres unmarked) [Compound 116, 3-((4,4-bis(octyloxy)butanoyl)oxy)-2-((((3-(diethylamino)propoxy)carbonyl)oxy)methyl)propyl (9Z,12Z,15Z)-octadeca-9,12,15-trienoate] | 74 nm | 0 | 90 nm | 34.48% | 51.3% | 567.09 µg/mL | 6.04 | 99% |  |
| CCCCC/C=C\C/C=C\CCCCCCCC(=O)OCC(COC(=O)CCCN(CC)CC)COC(=O)CCC(OCCCCCCCC)OCCCCCCCC (centres unmarked) [Compound 29, 3-((4,4-bis(octyloxy)butanoyl)oxy)-2-(((4-(diethylamino)butanoyl)oxy)methyl)propyl (9Z,12Z)-octadeca-9,12-dienoate] |  |  |  |  |  |  | 6.84 |  | Number mean (nm) [1, 9]: 70 nm; PDI [1, 9]: 0.003; Z-avg (nm) [1, 9]: 84 nm; Number mean (nm) [1, 10]: 66.92 nm and 64.63 nm; Z-avg (nm) [1, 10]: 82.41 nm and 78.63 nm; Editing Mean % Indel (mouse TTR gene; [11]): 31.4%; Editing Mean % Indel (mouse TTR gene; [12]): 54.8%; Serum TTR (Transthyretin (TTR); [13]): 663 µg/mL; Serum TTR % TSS (Transthyretin (TTR); [14]): 48%; Serum TTR (Transthyretin (TTR); [15]): 205 µg/mL; Serum TTR % TSS (Transthyretin (TTR); [16]): 15%; % E [3, 9]: 99%; Encapsulation (%) [3]: 98% |
| CCCCCCCC/C=C\CCCCCCCC(=O)OCC(COC(=O)CCC(OCCCCCCCC)OCCCCCCCC)COC(=O)OCCCN(CC)CC (centres unmarked) [Compound 115, 3-((4,4-bis(octyloxy)butanoyl)oxy)-2-((((3-(diethylamino)propoxy)carbonyl)oxy)methyl)propyl oleate] | 76 nm | 0.01 | 93 nm | 19.68% | 73.8% | 816.3 µg/mL | 5.96 | 97% |  |
| CCCCCC/C=C\COC(=O)CCCCCCCC(=O)OCC(COC(=O)CCC(OCCCCCCCC)OCCCCCCCC)COC(=O)OCCCN(CC)CC (centres unmarked) [Compound 54, (Z)-1-(3-((4,4-bis(octyloxy)butanoyl)oxy)-2-((((3-(diethylamino)propoxy)carbonyl)oxy)methyl)propyl) 9-(non-2-en-1-yl) nonanedioate] |  |  |  |  |  |  | 6.4 |  | Number mean (nm) [1, 9]: 77.96 nm; PDI [1, 9]: 0.032; Z-avg (nm) [1, 9]: 96.98 nm; Number mean (nm) [1, 10]: 76.95 nm and 71.8 nm and 78.39 nm; Z-avg (nm) [1, 10]: 95.76 nm and 89.8 nm and 99.71 nm; Editing Mean % Indel (mouse TTR gene; [11]): 28.3%; Editing Mean % Indel (mouse TTR gene; [12]): 64.8%; Serum TTR (Transthyretin (TTR); [13]): 449 µg/mL; Serum TTR % TSS (Transthyretin (TTR); [14]): 49%; Serum TTR (Transthyretin (TTR); [15]): 97 µg/mL; Serum TTR % TSS (Transthyretin (TTR); [16]): 11%; % E [3, 9]: 98%; Encapsulation (%) [3]: 98% |
| CCCCC/C=C\C/C=C\CCCCCCCC(=O)OCC(COC(=O)CCC(OCCCCCCCC)OCCCCCCCC)COC(=O)NCCN1CCCCCC1 (centres unmarked) [Compound 103, 3-(((2-(azepan-1-yl)ethyl)carbamoyl)oxy)-2-(((4,4-bis(octyloxy)butanoyl)oxy)methyl)propyl (9Z,12Z)-octadeca-9,12-dienoate] | 50 nm | 0.05 | 65 nm | 4.2% | 89.3% | 1043.8 µg/mL | 7 | 99% |  |
| CCCCCCCCCCCCCCCCCC(=O)OCC(COC(=O)CCC(OCCCCCCCC)OCCCCCCCC)COC(=O)OCCCN(CC)CC (centres unmarked) [Compound 114, 3-((4,4-bis(octyloxy)butanoyl)oxy)-2-((((3-(diethylamino)propoxy)carbonyl)oxy)methyl)propyl stearate] | 72 nm | 0.02 | 87 nm | 18.04% | 88.4% | 978.01 µg/mL | 6.13 | 96% |  |
